Laboratory results reported in patent US20210308078A1, “NEW USE OF INHIBITORS OF MONOAMINE OXIDASE TYPE B” (ISTITUTO Di RICERCA PEDiATRiCA CITTA DELLA SPERANZA, priority 2018, published 2021).

Experiments:
MAOA, MAOB = conditions: cited from earlier work
IL-1β [1] = assay: IL-1β release in human macrophages (ELISA); type: cell-based; conditions: LPS/ATP and LPS/nigericin, 8 h, pargyline 100 μM, rasagiline 5 μM, NAC 5 mM
Experimental: FIG. 6. […] The levels of IL-1β in the supernatants were quantified by means of ELISA test. The values are the average of at least 3 independent experiments±SEM.
(§1) Human monocytes derived from buffy coats obtained from healthy donors were prepared as described in Cathcart, M. K., and Bhattacharjee, A. (2014). […] For macrophage differentiation, 5×10^6 monocytes, seeded in 24-well plates, were cultivated in RPMI 20% FBS in the presence of 10 ng/ml GM-CSF (Miltenyi Biotec) for 7 days. For inflammasome activation, 2×10^6 cells in 6-well plates were treated for 8 h with 100 ng/m1 of LPS Ultra-pure combined with ATP (1 mM) or nigericine (15 μM, added the last 30 min).

caspase-1 = assay: Caspase-1 activation assay (FLICA 660-YVAD-FMK, FACS) in human macrophages; type: cell-based; conditions: LPS/ATP and LPS/nigericin, 8 h; pargyline 100 μM, rasagiline 5 μM, NAC 5 mM
Experimental: The cells were then marked with fluorescent antibodies anti-MHCII and analysed by FACS. The activity of the inflammasome was expressed as % of the cells that were positive for caspase-1 and for MHCII in relation to the total. The values are the average of at least 3 independent experiments±SEM.
as §1
The activation of caspase-1 in human macrophages was monitored by way of flow cytometry analysis. The cells, subjected to various treatments, were incubated at 37° C. for 3 h with FLICA 660-YVAD-FMK and washed according to the manufacturer's instructions (FLICA®660 Caspase-1 Assay Kit; ImmunoChemistry Technologies). […] The analysis was performed using CellQuest software (Becton Dickinson) in cells positive for caspase-1 and MHCII.

MAO = conditions: human macrophages stimulated 8 h with LPS, LPS/ATP or LPS/nig; pargyline 100 μM, rasagiline 5 μM
Experimental: The intracellular levels of dopamine and norepinephrine (both substrates of MAO) were measured by means of mass spectrometry on cell lysates extracted with methanol:water (70:30). […] The values are the average of at least 3 independent experiments±SEM.
as §1

human macrophages [2] = conditions: stimulation with LPS/ATP and LPS/nigericine, 3 h; rasagiline 5 μM
Experimental: The images were acquired by means of fluorescence microscopy. The data are expressed as fluorescence intensity and are normalised with respect to unstimulated cells (unst). The values are the average of at least 3 independent experiments±SEM.
as §1
ROS were determined by means of carboxymethyl-dichlorofluorescein (CM-DCFDA). […] After 3 h of stimulation the cells were loaded with CM-DCFDA (2.5 μM) for 30 min. All of the steps were performed at 37° C. with 5% CO2. The cells were washed with PBS and the images were acquired using a Leica DMI6000B microscope (Wetzlar, Germany). The fluorescence was measured at 6-8 random intervals per slide and an average value was recorded. The fluorescence emission was performed using excitation filters of emission 488±20 nm and 645±37 nm. The data were acquired and analysed by means of Metafluor software (Universal Imaging).

human macrophages [3] = conditions: 8 h of stimulation; rasagiline 5 μM pre-treatment
Experimental: After 8 h of stimulation, the macrophages were loaded with tetramethylrhodamine methyl ester (TMRM, 50 nM) to determine the mitochondrial membrane potential. After acquisition of images by fluorescence microscopy, the uncoupling agent FCCP (4 μM) was added to collapse the mitochondrial potential. The difference of the fluorescence intensity obtained before and after FCCP is shown in the graph and reflects the mitochondrial membrane potential. The data are expressed as fluorescence intensity and are normalised with respect to unstimulated cells (unst). The values are the average of at least 3 independent experiments±SEM. […]
The mitochondrial membrane potential was measured on the basis of the accumulation of tetramethylrhodamine methyl ester (TMRM, Molecular Probes) as described in Sorato, E., Menazza, S., Zulian, A., Sabatelli, P., Gualandi, F., Merlini, L., Bonaldo, P., Canton, M., Bernardi, P., and Di Lisa, F. (2014). […] The medium was then substituted with a medium devoid of serum integrated with TMM 25 nM for 30 minutes, and the cell fluorescence images were acquired using a Leica microscope (Wetzlar, Germany) DMI6000B. The data were acquired and analysed by means of Metafluor software (Universal Imaging). An excitation of 540±20 nm and a 590 nm longpass emission filter were used to reveal the fluorescence. […]

mice treated with LPS = conditions: rasagiline 0.5 mg/kg per os 12 h before LPS 10 mg/kg ip, 8 h
Experimental: In parallel, a group of mice (ct) were treated with only the vehicle (PBS, ip). At the end, a sample of blood was taken and the plasma levels of IL-1β0 were quantified by means of Elisa test. […] The values are the average of at least 3 independent experiments±SEM.
In parallel, a group of mice (ct) were treated with only the vehicle (PBS, ip). At the end, peritoneal washing with 2 ml of PBS was performed, as well as a leukocyte count.
Adult mice were treated with a single injection of LPS (10 mg/kg ip) for 8 h or of vehicle (PBS, ip). […] At the end, the animals were sacrificed and samples were taken of blood and the peritoneal exudate.
Male mice (strain C57BL/6J) of age 8-10 weeks and weight approximately 30 gr. were subjected to an intraperitoneal injection with LPS (10 mg/kg, L4130, Sigma-Aldrich) or vehicle (saline solution, called PBS). […] The treated animals were sacrificed 8 hours after the injection (considered as time 0), by means of cervical dislocation. Immediately after the sacrifice an intraperitoneal washing was performed with 2 ml of PBS and any exudate present was collected to determine the leukocyte count. In addition, samples of blood were taken and frozen after obtaining the plasma for analysis of IL-1β by means of ELISA test.

NF-κB = conditions: murine macrophages
Source text: The values are the average of at least 3 independent experiments±SEM.

IL-1β [4] = assay: IL-1β release in murine macrophages (ELISA); type: cell-based; conditions: LPS 100 ng/ml + ATP 5 mM, 4 h, pargyline 100 μM, rasagiline 5 μM
Source text: FIG. 7. […] The levels of IL-1β in the supernatants were quantified by means of ELISA test.
Murine macrophages isolated from bone marrow were obtained from the tibia and femoral bone as described in Coll, R. C., Robertson, A. A., Chae, J. J., Higgins, S. C., Munoz-Planillo, R., Inserra, M. C., Vetter, I., Dungan, L. S., Monks, B. G., Stutz, A., et al. (2015). A small-molecule inhibitor of the NLRP3 inflammasome for the treatment of inflammatory diseases. Nature medicine 21, 248-255.
[…] ATP (5 mM, added the last 30 min).
The culture media sampled from stimulated and control human and murine macrophages were stored at −80° C. The levels of IL-1β0 were determined by means of commercially available ELISA kits (eBioscience) and were developed using 3,3′,5,5′-tetramethyl benzidine (TMB). The optical densities were measured at 450 nm by means of a microplate reader (Sunrise, Tecan; Switzerland).

Row | Compound | selectivity of inhibition for MAOA / MAOB isoforms (MAOA, MAOB) | release of IL-1β in supernatants (IL-1β [1]) | activity of the inflammasome (% cells positive for caspase-1 and MHCII) (caspase-1) | intracellular concentration of dopamine (MAO) | production of ROS (human macrophages [2]) | mitochondrial depolarisation (mitochondrial membrane potential, TMRM) (human macrophages [3]) | concentration of leucocytes in the peritoneal liquid (mice treated with LPS) | plasma levels of IL-1β (mice treated with LPS) | activation of NF-κB (NF-κB) | protein levels of pro-IL-1β (NF-κB) | release of IL-1β in supernatants (IL-1β [4])
1 | NNCCc1ccccc1 [phenelzine] | lack selectivity | – | – | – | – | – | – | – | – | – | –
2 | N[C@@H]1C[C@H]1c1ccccc1 (racemic) [tranylcypromine] | lack selectivity | – | – | – | – | – | – | – | – | – | –
3 | CC(=O)N[C@@H](CS)C(=O)O [N-acetylcysteine] | – | effect is similar | effect is similar | – | – | – | – | – | – | – | –
4 | C#CCN[C@@H]1CCc2ccccc21 [rasagiline] | MAOB are selectively inhibited | significantly inhibit the release of IL-1β | significantly inhibit the activity of the inflammasome | increases subsequently | reduces the production of ROS | significantly reduce the mitochondrial depolarisation | clear reduction of the concentration of leucocytes | drastically reduces the increase of plasma levels of IL-1β | reduce the activation of NF-κB | reduce | significantly inhibit the release of IL-1β
5 | C#CCN(C)Cc1ccccc1 [pargyline] | able to inhibit both the isoforms | significantly inhibit the release of IL-1β | significantly inhibit the activity of the inflammasome | increases subsequently | – | – | – | – | – | – | significantly inhibit the release of IL-1β
